Measured values reported in patent publication US7842802B2, “Vinorelbine derivatives” (priority 2003, dated 2010).

Assays:
[1] = test system: COLO 205; assay: NCI 60-cell line growth inhibition assay, COLO 205; format: cell-based; details: Homo sapiens, Colon
Text: (§1) The following data in Table 4 summarize the growth inhibition properties of several compounds of the present invention against 60-human transformed cell lines.

[2] = test system: SR; assay: NCI 60-cell line growth inhibition assay, SR; format: cell-based, human; details: Leukemia
Text: as §1

[3] = test system: SF-539; assay: NCI 60-cell line growth inhibition assay, SF-539; format: cell-based, human; details: CNS
Text: as §1

[4] = test system: SNB-75; assay: NCI 60-cell line growth inhibition assay, SNB-75; format: cell-based, human; details: CNS
Text: as §1

[5] = test system: OVCAR-4; assay: NCI 60-cell line growth inhibition assay, OVCAR-4; format: cell-based; details: Homo sapiens, Ovarian
Text: as §1

[6] = test system: SNB-19; assay: NCI 60-cell line growth inhibition assay, SNB-19; format: cell-based; details: Homo sapiens, CNS
Text: as §1

[7] = test system: RXF 393; assay: NCI 60-cell line growth inhibition assay, RXF 393; format: cell-based, human; details: Renal
Text: as §1

[8] = test system: NCI-H460; assay: NCI 60-cell line growth inhibition assay, NCI-H460; format: cell-based, human; details: Non-Small Cell Lung
Text: as §1

[9] = test system: CCRF-CEM; assay: NCI 60-cell line growth inhibition assay, CCRF-CEM; format: cell-based, human; details: Leukemia
Text: as §1

[10] = test system: HCC-2998; assay: NCI 60-cell line growth inhibition assay, HCC-2998; format: cell-based; details: Homo sapiens, Colon
Text: as §1

[11] = test system: SF-268; assay: NCI 60-cell line growth inhibition assay, SF-268; format: cell-based, human; details: CNS
Text: as §1

[12] = test system: SK-OV-3; assay: NCI 60-cell line growth inhibition assay, SK-OV-3; format: cell-based; details: Homo sapiens, Ovarian
Text: as §1

[13] = test system: EKVX; assay: NCI 60-cell line growth inhibition assay, EKVX; format: cell-based; details: Homo sapiens, Non-Small Cell Lung
Text: as §1

[14] = test system: MOLT-4; assay: NCI 60-cell line growth inhibition assay, MOLT-4; format: cell-based; details: Homo sapiens, Leukemia
Text: as §1

[15] = test system: OVCAR-8; assay: NCI 60-cell line growth inhibition assay, OVCAR-8; format: cell-based, human; details: Ovarian
Text: as §1

[16] = test system: SK-MEL-28; assay: NCI 60-cell line growth inhibition assay, SK-MEL-28; format: cell-based; details: Homo sapiens, Melanoma
Text: as §1

[17] = test system: SK-MEL-5; assay: NCI 60-cell line growth inhibition assay, SK-MEL-5; format: cell-based; details: Homo sapiens, Melanoma
Text: as §1

[18] = test system: IGROV1; assay: NCI 60-cell line growth inhibition assay, IGROV1; format: cell-based, human
Text: as §1

[19] = test system: OVCAR-5; assay: NCI 60-cell line growth inhibition assay, OVCAR-5; format: cell-based; details: Homo sapiens, Ovarian
Text: as §1

[20] = test system: OVCAR-3; assay: NCI 60-cell line growth inhibition assay, OVCAR-3; format: cell-based, human; details: Ovarian
Text: as §1

[21] = test system: CAKI-1; assay: NCI 60-cell line growth inhibition assay, CAKI-1; format: cell-based, human; details: Renal
Text: as §1

[22] = test system: HCT-116; assay: NCI 60-cell line growth inhibition assay, HCT-116; format: cell-based, human; details: Colon
Text: as §1

[23] = test system: BT-549; assay: NCI 60-cell line growth inhibition assay, BT-549; format: cell-based, human; details: Breast
Text: as §1

[24] = test system: NCI-H322M; assay: NCI 60-cell line growth inhibition assay, NCI-H322M; format: cell-based, human; details: Non-Small Cell Lung
Text: as §1

[25] = test system: 786-0; assay: NCI 60-cell line growth inhibition assay, 786-0; format: cell-based, human; details: Renal
Text: as §1

[26] = test system: A498; assay: NCI 60-cell line growth inhibition assay, A498; format: cell-based, human; details: Renal
Text: as §1

CCC1=C[C@H]2CN(C1)Cc1c([nH]c3ccc(I)cc13)[C@@](C(=O)OC)(c1cc3c(cc1OC)N(C)[C@H]1[C@@](O)(C(=O)OC)[C@H](OC(C)=O)C4C(CC)=CCN5CC[C@]31[C@H]45)C2 (some centres unmarked) [Example 2, 11′-iodovinorelbine]
GI50 [1]: 17.9 nM
GI50 ([2]; Homo sapiens): 26.1 nM
GI50 ([3]; Homo sapiens): 37.9 nM
GI50 ([4]; Homo sapiens): 40.4 nM
GI50 [5]: 264 nM
GI50 [6]: 62.5 nM
GI50 ([7]; Homo sapiens): 60.5 nM
GI50 ([8]; Homo sapiens): 43.2 nM
GI50 ([9]; Homo sapiens): 37.9 nM
GI50 [10]: < 10 nM
GI50 ([11]; Homo sapiens): 78.8 nM
GI50 [12]: 63.3 nM
GI50 [13]: 72.6 nM
GI50 [14]: 24.1 nM
GI50 ([15]; Homo sapiens): 51.7 nM
GI50 [16]: 91.4 nM
GI50 [17]: 18.8 nM
GI50 ([18]; Homo sapiens, IGROV-1, Ovarian): 32.4 nM
GI50 [19]: 225 nM

11′-bromovinorelbine [Example 1]
GI50 [20]: < 10 nM
GI50 [21]: < 10 nM
GI50 [22]: < 10 nM
GI50 [23]: < 10 nM
GI50 [2]: > 100000 nM
GI50 [3]: < 10 nM
GI50 [24]: < 10 nM
GI50 [4]: 15100 nM
GI50 [7]: 10300 nM
GI50 [8]: < 10 nM
GI50 [9]: < 10 nM
GI50 [25]: < 10 nM
GI50 [11]: < 10 nM
GI50 [26]: < 10 nM
GI50 [15]: < 10 nM
GI50 ([18]; Ovarian): < 10 nM
